Assay results published in EPA's ToxValDB 9.5 (doi:10.2903/j.efsa.2009.194r).

Assays:
Lepomis macrochirus = conditions: acute; duration: 96 hours; mortality
Typhlodromus pyri = conditions: chronic/long-term
Rattus norvegicus = conditions: for NOAEL: hematological
Canidae = conditions: chronic; duration: 1 years; oral; Dog Other; hematological
Daphnia magna = conditions: chronic/long-term; duration: 21 days; reproduction
Aphidius rhopalosiphi = conditions: chronic/long-term
Pimephales promelas = conditions: chronic/long-term; duration: 36 days; growth
Apis mellifera = conditions: acute; duration: 48 hours; dermal; mortality
Colinus virginianus = conditions: for LD50: acute, oral, mortality
Tagia sp. = conditions: acute; duration: 14 days; mortality

O=C(NC(=O)c1ccccc1Cl)Nc1ccc(OC(F)(F)F)cc1 [Triflumuron]
LC50 (Lepomis macrochirus): > 0.0208 µg/mL | LEL (Typhlodromus pyri; duration: 7 days, mortality): 384 g/ha | LEL (Typhlodromus pyri; reproduction): 384 g/ha | LD50 (Rattus norvegicus; acute, oral, mortality): > 5000 mg/kg-day | NOEC (Rattus norvegicus; chronic): 142 mg/kg-day | NOAEL (Rattus norvegicus; chronic, duration: 2 years): 0.82 mg/kg-day | NOAEL (Rattus norvegicus; subchronic, duration: 90 days, oral): 3.6 mg/kg-day | NOAEL (Canidae): 1.42 mg/kg-day | NOEC (Daphnia magna): 3.2e-05 mg/L | LEL (Aphidius rhopalosiphi; mortality): 300 g/ha | LEL (Aphidius rhopalosiphi; reproduction): 300 g/ha | NOEC (Pimephales promelas): ≥ 0.0228 mg/L | LD50 (Apis mellifera): > 200 µg/piece | LD50 (Colinus virginianus; diet): > 805 mg/kg-day | LD50 (Colinus virginianus): 561 mg/kg-day | NOEC (Colinus virginianus; reproduction developmental): 1.65 mg/kg-day | LC50 (Tagia sp.): > 500 mg/kg
